Assay results from ChEMBL document CHEMBL2203219, “Discovery and evolution of phenoxypiperidine hydroxyamide dual CCR3/H₁ antagonists. Part II: optimising in vivo clearance” (Bioorg Med Chem Lett, 2012).

Key:
in vitro [1] = details: human
in vitro [2] = details: rat, hepatocytes
physchem = details: octanol/water
in vivo [3] = details: rat, iv
in vivo [4] = details: rat, iv; remark: listed apart in the source
in vivo [5] = details: rat, iv; remark: listed apart in the source
[6] = Oral bioavailability in rat; assay type: ADME, organism-based; details: in vivo
[7] = Oral bioavailability in dog; assay type: ADME, organism-based, Canis lupus familiaris; details: in vivo
in vivo [8] = details: dog
in vivo [9] = details: dog; remark: listed apart in the source
Rattus norvegicus = organism: Rattus norvegicus; details: in vivo, iv

Row | Compound | microsomal CLint (in vitro [1]; liver microsomes) [µL/min/mg] | hepatocyte CLint (in vitro [2]) [µL/min/1e6 cells] | logD (physchem) | other results
1 | Cc1cc(Cl)ccc1OC1CCN(C[C@H](O)CNC(=O)c2c[nH]c(=O)c3cc(S(C)(=O)=O)ccc23)CC1 | 14 | 7 | 2.4 | 
2 | Cc1cc(Cl)ccc1OC1CCN(C[C@H](O)CNC(=O)c2c[nH]c(=O)c3ccc(S(C)(=O)=O)cc23)CC1 | 7 | 8 |  | 
3 | O=C(NC[C@@H](O)CN1CCC(Oc2ccc(Cl)c(Cl)c2)CC1)c1c[nH]c(=O)c2cc(F)ccc12 |  |  | 3.2 | Vd (in vivo [3]): 6.4 L/kg
4 | Cc1cc(Cl)ccc1OC1CCN(C[C@H](O)CNC(=O)c2c[nH]c(=O)c3cc(F)ccc23)CC1 | 9 | < 3 |  | 
5 | O=C(NC[C@@H](O)CN1CCC(Oc2ccc(Cl)c(Cl)c2)CC1)c1c[nH]c(=O)c2ccc(F)cc12 | 8 | 5 | 3.9 | 
6 | O=C(NC[C@@H](O)CN1CCC(Oc2ccc(Cl)c(Cl)c2)CC1)c1c[nH]c(=O)c2cc(S(=O)(=O)NCCO)ccc12 |  | 5 |  | 
7 | NS(=O)(=O)c1ccc2c(C(=O)NC[C@@H](O)CN3CCC(Oc4ccc(Cl)c(Cl)c4)CC3)c[nH]c(=O)c2c1 | < 3 | < 3 |  | 
8 | CNS(=O)(=O)c1ccc2c(C(=O)NC[C@@H](O)CN3CCC(Oc4ccc(Cl)c(Cl)c4)CC3)c[nH]c(=O)c2c1 | 14 | < 3 | 2.8 | 
9 | O=C(NC[C@@H](O)CN1CCC(Oc2ccc(Cl)c(Cl)c2)CC1)c1c[nH]c(=O)c2cc(S(=O)(=O)NC3CC3)ccc12 | 21 | 6 |  | 
10 | CN(C)S(=O)(=O)c1ccc2c(C(=O)NC[C@@H](O)CN3CCC(Oc4ccc(Cl)c(Cl)c4)CC3)c[nH]c(=O)c2c1 | 86 | 10 | 3.1 | 
11 | O=C(NC[C@@H](O)CN1CCC(Oc2ccc(Cl)c(Cl)c2)CC1)c1c[nH]c(=O)c2cc(S(=O)(=O)N3CCC3)ccc12 |  | 7 |  | microsomal CLint (in vitro [1]; microsomes): < 3 µL/min/mg
12 | CC1(O)CN(S(=O)(=O)c2ccc3c(C(=O)NC[C@@H](O)CN4CCC(Oc5ccc(Cl)c(Cl)c5)CC4)c[nH]c(=O)c3c2)C1 | 18 | 3 | 2.5 | 
13 | O=C(NC[C@@H](O)CN1CCC(Oc2ccc(Cl)c(Cl)c2)CC1)c1c[nH]c(=O)c2c(F)cccc12 | 6 | < 3 | 3.2 | 
14 | Cc1cc(Cl)ccc1OC1CCN(C[C@H](O)CNC(=O)c2c[nH]c(=O)c3c(F)cccc23)CC1 | 9 | 7 | 3 | 
15 | O=C(NC[C@@H](O)CN1CCC(Oc2ccc(Cl)c(Cl)c2)CC1)c1c[nH]nc1C1CC1 | 9 | < 3 |  | 
16 | O=C(NC[C@@H](O)CN1CCC(Oc2ccc(Cl)c(Cl)c2)CC1)c1c[nH]c(=O)c2ccccc12 |  |  |  | bioavailability [6]: 11%; bioavailability [7]: 40%
17 | NC(=O)c1c(OC2CCN(C[C@H](O)CNC(=O)c3c[nH]c(=O)c4ccccc34)CC2)ccc(Cl)c1Cl | 18 | 2 | 1.5 | bioavailability [6]: < 5%; CL (Rattus norvegicus): 8.6 µL/min/kg
18 | N#Cc1ccc(OC2CCN(C[C@H](O)CNC(=O)c3c[nH]c(=O)c4ccccc34)CC2)cc1 | 18 | 6 |  | 
19 | N#Cc1ccc(OC2CCN(C[C@H](O)CNC(=O)c3c[nH]c(=O)c4ccccc34)CC2)cc1Cl | 22 | 10 | 2.6 | 
20 | CS(=O)(=O)c1ccc2c(C(=O)NC[C@@H](O)CN3CCC(Oc4ccc(C#N)c(Cl)c4)CC3)c[nH]c(=O)c2c1 |  |  | 1.4 | 
21 | CS(=O)(=O)c1ccc2c(C(=O)NC[C@@H](O)CN3CCC(Oc4ccc(Cl)c(Cl)c4)CC3)c[nH]c(=O)c2c1 |  | 3 |  | 

Second part, led by results:

Row | microsomal CLint (in vitro [1]; liver microsomes) [µL/min/mg] | hepatocyte CLint (in vitro [2]) [µL/min/1e6 cells] | logD (physchem) | Compound | other results
22 | < 3 | < 3 | 2.8 | Cc1c(Cl)ccc(OC2CCN(C[C@H](O)CNC(=O)c3c[nH]c(=O)c4ccc(S(C)(=O)=O)cc34)CC2)c1Cl | 
23 | < 3 | 3 |  | O=C(NC[C@@H](O)CN1CCC(Oc2ccc(Cl)c(Cl)c2)CC1)c1c[nH]nc1C(F)(F)F | clearance (in vivo [4]): 22 mL/min/kg; half-life (in vivo [5]): 360 min; bioavailability [6]: 36%
24 |  | 5 |  | Cc1cc(Cl)ccc1OC1CCN(C[C@H](O)CNC(=O)c2c[nH]nc2C(F)(F)F)CC1 | microsomal CLint (in vitro [1]; microsomes): < 3 µL/min/mg
25 | < 3 | 6 |  | Cc1c(Cl)ccc(OC2CCN(C[C@H](O)CNC(=O)c3c[nH]nc3C(F)(F)F)CC2)c1Cl | 
26 | < 3 | 4 |  | O=C(NC[C@@H](O)CN1CCC(Oc2ccc(Cl)c(Cl)c2)CC1)c1c[nH]c(=O)cc1C(F)(F)F | bioavailability [6]: < 10%; bioavailability [7]: 63%
27 | 3 | < 3 |  | Cc1cc(Cl)ccc1OC1CCN(C[C@H](O)CNC(=O)c2c[nH]c(=O)cc2C(F)(F)F)CC1 | 
28 | 6 | 3 |  | Cc1c(Cl)ccc(OC2CCN(C[C@H](O)CNC(=O)c3c[nH]c(=O)cc3C(F)(F)F)CC2)c1Cl | 
29 |  | < 3 |  | Cn1cc(C(=O)NC[C@@H](O)CN2CCC(Oc3ccc(Cl)c(Cl)c3)CC2)c(C(F)(F)F)cc1=O | microsomal CLint (in vitro [1]; microsomes): 5 µL/min/mg; half-life (in vivo [8]): 648 min; clearance (in vivo [4]): 9 mL/min/kg; half-life (in vivo [5]): 582 min; bioavailability [6]: 53%; bioavailability [7]: 81%; clearance (in vivo [9]): 8 mL/min/kg
30 | 13 | 12 | 2.8 | Cc1c(Cl)ccc(OC2CCN(C[C@H](O)CNC(=O)c3c[nH]c(=O)c4cc(S(C)(=O)=O)ccc34)CC2)c1Cl | 
